{
  "source": "paper PMC12188386",
  "about": "“Selective CBP/EP300 Bromodomain Inhibitors: Novel Epigenetic Tools to Counter TNF-α-Driven Inflammation” (JACS Au, 2025)",
  "key": {"[1]": {"test_system": "TNF-α-induced cytokine expression in THP-1 cells", "assay": "cytokine mRNA expression by RT-qPCR", "type": "cell-based, human", "details": "1 h co-treatment of THP-1 cells with 10 ng/mL TNF-α and 1 μM compound", "method": "For cytokine expression determination, 5x10^5 THP-1 cells were plated on 12 well plates the day prior to treatment with 10 ng/mL recombinant human TNF -α (aa 77-233) protein (R&D systems, 10291 -TA) and compounds at a final concentration of 0.1 % DMSO. In all cases, total\nRNA was extracted using the NucleoSpin® RNA kit (Machery -Nagel) and used for cDNA synthesis with the High -Capacity cDNA Reverse Transcription kit (Applied Biosystems). RT-qPCR reactions were performed using PowerSYBR™ green PCR Master Mix (Applied Biosystems) and a LightCycler® 480 (Roche). cDNA was denatured for 10 min at 95 °C followed by 40 cycles of 15 s at 95 °C and 1 min at 60 °C. Cp values were determined as the maximum of the second derivative and target gene expression was compared to that of hprt from the same sample using the 2-ΔCp method. Gene expression was then normalized to the average of the control samples from the same day, or all biological replicates. […]"}, "[2]": {"test_system": "immune cell recruitment to the popliteal lymph node", "assay": "TNF-α induced inflammation model, flow cytometry of pLN", "type": "in vivo, mouse", "details": "mice, flow cytometry 5 h post-injection of rmTNF-α, vs control group"}, "[3]": {"test_system": "leukemia, melanoma and breast cancer cell lines", "assay": "NCI-60 antiproliferation screen", "type": "cell-based, human", "details": "10 µM", "method": "Adapted from NCI-60 Screening Methodology, one-dose screen:20 Briefly, human tumor cell lines, grown in RPMI 1640 containing 5% FBS and 2 mM L-glutamine, were plated in 96 well plates at densities ranging from 5,000 to 40,000 cells/well 24 h prior to addition of test compounds (here 10 μM 2). 400x solutions of test compounds were prepared in DMSO, then diluted to 2x in medium supplemented with 50 μg/mL gentamicin. 100 μl of this 2x stock was added to cells previously plated in 100 μl medium, resulting in the desired final compound concentration. Cells were fixed in situ with cold TCA: untreated cells at the time of compound addition (Tz) and treated cells 48 h after addition of compound (Ti). Cells were washed, then su f rh damine s uti n μ at . w/v in acetic acid was added to each well and incubated for 10 minutes at room temperature. After washing again, the plates were air dried and bound stain solubilized with 10 mM Trizma base before absorbance was […]\nPercentage growth (%Growth) was calculated as follows:\nwhen Ti ≥ Tz, %Growth = Ti − Tz x 100 where Ti = absorbance from compound treated cells, Tz = absorbance from untreated cells at time zero, and C = absorbance from control (DMSO) treated cells. […]"}},
  "data": [
    {"smiles": "Cc1cc2c(NC(=O)c3cc(NC(=O)c4ccco4)cc(-c4ccn(C)n4)c3)cccc2nn1", "note": "[Compound 2]", "values": [
      {"measurement": "TNF-α-induced expression of il1β, il8, mcp-1 and tnf-α (mRNA)", "setting": "[1]", "result": "inhibited expression to a greater extent than the less potent but more soluble inhibitor 5"},
      {"measurement": "recruitment of lymphocytes (T and B cells), dendritic cells and neutrophils to the pLN", "setting": "[2]", "result": "significantly inhibited the recruitment of lymphocytes"},
      {"measurement": "growth of cancer cell lines (NCI-60), in words", "setting": "[3]", "result": "strongly inhibit the growth of leukemia, melanoma and breast cancer cell lines"}
    ]}
  ]
}
